What follows are compounds tested against EGFR (UniProt P00533).
Chain of EGFR (P00533 whole entry, looked up): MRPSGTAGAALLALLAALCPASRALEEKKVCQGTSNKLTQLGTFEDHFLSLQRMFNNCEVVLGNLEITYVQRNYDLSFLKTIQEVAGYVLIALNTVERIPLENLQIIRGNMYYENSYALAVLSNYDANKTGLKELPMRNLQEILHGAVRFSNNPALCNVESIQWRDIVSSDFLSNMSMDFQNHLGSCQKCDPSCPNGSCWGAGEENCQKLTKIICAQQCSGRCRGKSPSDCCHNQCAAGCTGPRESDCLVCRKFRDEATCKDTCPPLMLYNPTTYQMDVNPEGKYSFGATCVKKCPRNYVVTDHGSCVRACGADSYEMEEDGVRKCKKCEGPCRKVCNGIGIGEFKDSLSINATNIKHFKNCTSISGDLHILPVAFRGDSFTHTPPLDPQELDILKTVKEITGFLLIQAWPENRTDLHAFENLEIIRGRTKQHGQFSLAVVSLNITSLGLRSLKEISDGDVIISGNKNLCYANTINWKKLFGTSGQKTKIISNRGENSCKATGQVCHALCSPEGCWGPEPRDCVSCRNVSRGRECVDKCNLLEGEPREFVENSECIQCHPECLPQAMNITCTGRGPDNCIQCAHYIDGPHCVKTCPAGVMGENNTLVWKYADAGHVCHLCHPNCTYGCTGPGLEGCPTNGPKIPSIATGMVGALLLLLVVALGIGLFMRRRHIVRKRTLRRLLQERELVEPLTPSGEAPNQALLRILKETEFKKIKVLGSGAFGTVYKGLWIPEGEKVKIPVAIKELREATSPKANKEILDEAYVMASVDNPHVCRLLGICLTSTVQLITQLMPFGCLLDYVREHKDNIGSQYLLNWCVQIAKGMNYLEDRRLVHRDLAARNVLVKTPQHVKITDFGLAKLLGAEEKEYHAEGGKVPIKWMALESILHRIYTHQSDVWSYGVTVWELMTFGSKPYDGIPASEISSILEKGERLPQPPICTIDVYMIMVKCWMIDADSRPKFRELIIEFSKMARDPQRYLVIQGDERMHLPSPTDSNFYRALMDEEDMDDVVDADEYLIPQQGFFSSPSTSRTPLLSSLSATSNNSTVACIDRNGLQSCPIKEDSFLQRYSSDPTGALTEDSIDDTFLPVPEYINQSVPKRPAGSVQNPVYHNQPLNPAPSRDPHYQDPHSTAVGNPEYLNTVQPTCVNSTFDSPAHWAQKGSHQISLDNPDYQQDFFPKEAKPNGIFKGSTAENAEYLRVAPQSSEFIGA

First: NCCc1cc(O)c(O)c(SC[C@H](N)C(=O)NCC(=O)O)c1
Second: NCCC(=O)NCCc1cc(O)c(O)c(SC[C@H](N)C(=O)NCC(=O)O)c1
The inhibition of the first is higher: 19.6 for the first, 7.9 for the second.

Going from `N[C@@H](Cc1cc(O)c(O)c(SC[C@H](N)C(=O)N[C@@H](CCC(=O)O)C(=O)O)c1)C(=O)O` to `NCCc1cc(O)c(O)c(SC[C@H](N)C(=O)N[C@@H](CCC(=O)O)C(=O)O)c1`, the inhibition rises from 0 to 9.3.

Compared with `N[C@@H](Cc1cc(O)c(O)c(Sc2nc[nH]n2)c1)C(=O)O`, `NCCc1cc(O)c(O)c(Sc2nc[nH]n2)c1` is lower in inhibition: 17 for the first, 15.9 for the second.

Compared with `NCCC(=O)NCCc1cc(O)c(O)c(SC[C@H](NC(=O)CC[C@H](N)C(=O)O)C(=O)NCC(=O)O)c1`, `NCCC(=O)N[C@@H](Cc1cc(O)c(O)c(SC[C@H](NC(=O)CC[C@H](N)C(=O)O)C(=O)NCC(=O)O)c1)C(=O)O` is lower in inhibition: 4.9 for the first, 2.2 for the second.

First: N[C@@H](Cc1cc(O)c(O)c(SC[C@H](N)C(=O)NCC(=O)O)c1)C(=O)O
Second: N[C@@H](CSc1cc(C[C@H](N)C(=O)O)cc(O)c1O)C(=O)O
The inhibition of the first is lower: 2.5 for the first, 2.9 for the second.

First: NCCc1cc(O)c(O)c(Sc2nc3ccccc3[nH]2)c1
Second: N[C@@H](Cc1cc(O)c(O)c(Sc2nc3ccccc3[nH]2)c1)C(=O)O
The inhibition of the first is higher: 15.1 for the first, 11.7 for the second.

Going from `NCCc1cc(O)c(O)c(SC[C@H](N)C(=O)O)c1` to `NCCC(=O)NCCc1cc(O)c(O)c(SC[C@H](N)C(=O)O)c1`, the inhibition falls from 16.3 to 12.1.

First: NCCC(=O)NCCc1cc(O)c(O)c(SC[C@H](N)C(=O)N[C@@H](CCC(=O)O)C(=O)O)c1
Second: NCCC(=O)N[C@@H](Cc1cc(O)c(O)c(SC[C@H](N)C(=O)N[C@@H](CCC(=O)O)C(=O)O)c1)C(=O)O
The inhibition of the first is higher: 52.1 for the first, 0 for the second.

`NCCC(=O)N[C@@H](Cc1cc(O)c(O)c(SC[C@H](N)C(=O)NCC(=O)O)c1)C(=O)O` was tested, and the inhibition was 0.
